According to patent US20240158348A1, “HERBICIDAL CYCLIC AMIDES N-SUBSTITUTED WITH A HALOALKYLSULFONYLANILIDE GROUP” (FMC Corporation, priority 2021, published 2024):

Columns and labels:
Type in all cases: in vivo
[1] = test system: blackgrass (Alopecurus myosuroides); assay: Test C preemergence, blackgrass; settings: 0 is no effect, 100 is complete control
Excerpt: Seeds of plant species selected from blackgrass (Alopecurus myosuroides), corn (Zea mays), foxtail, giant (giant foxtail, Setaria faberi), goosegrass (Eleusine indica), kochia (Bassia scoparia), oat, wild (wild oat, Avena fatua), pigweed, palmer (palmer amaranth, Amaranthus palmeri), ragweed (common ragweed, Ambrosia artemisiifolia), ryegrass, Italian (Italian ryegrass, Lolium multiflorum), soybean (Glycine max) and wheat (Triticum aestivum) were planted into a blend of loam soil and sand and treated preemergence with a directed soil spray using test chemicals formulated in a non-phytotoxic solvent mixture which included a surfactant.
At the same time, plants selected from these crop and weed species and also galium (catchweed bedstraw, Galium aparine) and horseweed (Erigeron canadensis) were planted in pots containing the same blend of loam soil and sand and treated with postemergence applications of test chemicals formulated in the same manner. Plants ranged in height from 2 to 10 cm and were in the one- to two-leaf stage for the postemergence treatment. Treated plants and untreated controls were maintained in a greenhouse for 10 or 12 days, after which time all treated plants were compared to untreated controls and visually evaluated for injury. Plant response ratings, summarized in Table A, are based on a 0 to 100 scale where 0 is no effect and 100 is complete control. A dash (-) response means no test result.

corn (Zea mays) [2] = assay: Test C preemergence, corn; settings: 0 is no effect, 100 is complete control
Procedure, shortened: (§1)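 Steps: sow in loam soil blended with sand; treat soil preemergence by directed spray, or treat young plants (2–10 cm, one to two leaves) postemergence; hold in greenhouse 10 or 12 days; rate injury visually relative to untreated controls on a 0–100 scale.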

[3] = test system: foxtail, giant (giant foxtail, Setaria faberi); assay: Test C preemergence, giant foxtail; settings: 0 is no effect, 100 is complete control
Procedure, shortened: as §1

[4] = test system: goosegrass (Eleusine indica); assay: Test C preemergence, goosegrass; settings: 0 is no effect, 100 is complete control
Procedure, shortened: as §1

kochia (Bassia scoparia) [5] = assay: Test C preemergence, kochia; settings: 0 is no effect, 100 is complete control
Procedure, shortened: as §1

[6] = test system: oat, wild (wild oat, Avena fatua); assay: Test C preemergence, wild oat; settings: 0 is no effect, 100 is complete control
Procedure, shortened: as §1

[7] = test system: pigweed, palmer (palmer amaranth, Amaranthus palmeri); assay: Test C preemergence, palmer amaranth; settings: 0 is no effect, 100 is complete control
Procedure, shortened: as §1

[8] = test system: ragweed (common ragweed, Ambrosia artemisiifolia); assay: Test C preemergence, ragweed; settings: 0 is no effect, 100 is complete control
Procedure, shortened: as §1

[9] = test system: ryegrass, Italian (Italian ryegrass, Lolium multiflorum); assay: Test C preemergence, Italian ryegrass; settings: 0 is no effect, 100 is complete control
Procedure, shortened: as §1

soybean (Glycine max) [10] = assay: Test C preemergence, soybean; settings: 0 is no effect, 100 is complete control
Procedure, shortened: as §1

[11] = test system: wheat (Triticum aestivum); assay: Test C preemergence, wheat; settings: 0 is no effect, 100 is complete control
[12] = test system: blackgrass (Alopecurus myosuroides); assay: Test C postemergence, blackgrass; settings: 31 g ai/ha Postemergence; visual injury, 0 to 100 scale (0 no effect, 100 complete control)
Procedure, shortened: as §1

corn (Zea mays) [13] = assay: Test C postemergence, corn
[14] = test system: foxtail, giant (giant foxtail, Setaria faberi); assay: Test C postemergence, giant foxtail
[15] = test system: goosegrass (Eleusine indica); assay: Test C postemergence, goosegrass
Procedure, shortened: as §1

kochia (Bassia scoparia) [16] = assay: Test C postemergence, kochia
Procedure, shortened: as §1

[17] = test system: oat, wild (wild oat, Avena fatua); assay: Test C postemergence, wild oat
[18] = test system: pigweed, palmer (palmer amaranth, Amaranthus palmeri); assay: Test C postemergence, palmer amaranth; settings: visual injury, 0 to 100 scale (0 no effect, 100 complete control)
Procedure, shortened: as §1

[19] = test system: ragweed (common ragweed, Ambrosia artemisiifolia); assay: Test C postemergence, ragweed; settings: visual injury, 0 to 100 scale (0 no effect, 100 complete control)
Procedure, shortened: as §1

[20] = test system: ryegrass, Italian (Italian ryegrass, Lolium multiflorum); assay: Test C postemergence, Italian ryegrass; settings: visual injury, 0 to 100 scale (0 no effect, 100 complete control)
Procedure, shortened: as §1

soybean (Glycine max) [21] = assay: Test C postemergence, soybean; settings: visual injury, 0 to 100 scale (0 no effect, 100 complete control)
[22] = test system: wheat (Triticum aestivum); assay: Test C postemergence, wheat; settings: visual injury, 0 to 100 scale (0 no effect, 100 complete control)
Procedure, shortened: as §1

[23] = test system: galium (catchweed bedstraw, Galium aparine); assay: Test C postemergence, galium
[24] = test system: horseweed (Erigeron canadensis); assay: Test C postemergence, horseweed
Procedure, shortened: as §1

[25] = test system: barnyardgrass (Echinochloa crusgalli); assay: Test D flooded paddy test, barnyardgrass; design: key: 0 = no effect, 100 = complete control; settings: 250 g ai/ha, Flood; applied to paddy water at 2-leaf stage; visual rating after 13 days; scale 0 (no effect) to 100 (complete control)
Procedure, shortened: (§2)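 2-leaf plants; flood 3 cm over soil; cpd into paddy water; depth maintained; greenhouse 13 d; visual rating vs controls, 0 = no effect, 100 = complete control; dash = no result.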

[26] = test system: ducksalad (Heteranthera limosa); assay: Test D flooded paddy test, ducksalad; design: key: 0 = no effect, 100 = complete control; settings: 250 g ai/ha, Flood; applied to paddy water at 2-leaf stage; visual rating after 13 days; scale 0 (no effect) to 100 (complete control)
Procedure, shortened: as §2

rice (Oryza sativa) = assay: Test D flooded paddy test, rice; design: key: 0 = no effect, 100 = complete control; settings: 250 g ai/ha, Flood; applied to paddy water at 2-leaf stage; visual rating after 13 days; scale 0 (no effect) to 100 (complete control)
Procedure, shortened: as §2

[27] = test system: sedge, umbrella (small-flower umbrella sedge, Cyperus difformis); assay: Test D flooded paddy test, umbrella sedge; design: key: 0 = no effect, 100 = complete control; settings: 250 g ai/ha, Flood; applied to paddy water at 2-leaf stage; visual rating after 13 days; scale 0 (no effect) to 100 (complete control)
Procedure, shortened: as §2

[28] = test system: blackgrass (Alopecurus myosuroides); assay: Test C postemergence, blackgrass; settings: 125 g ai/ha Postemergence; 0 is no effect, 100 is complete control
[29] = 31 g ai/ha Postemergence, visual injury, 0 to 100 scale (0 no effect, 100 complete control)
[30] = 125 g ai/ha Postemergence, 0 is no effect, 100 is complete control

COC(=O)N(c1cc(N2CCC(OC3CC3)C2=O)c(C)cc1Cl)S(=O)(=O)C(F)(F)F (stereo not shown) [Compound 40]
30: Pigweed, Palmer plant response rating ([18]; 31 g ai/ha Postemergence)
80: Plant response rating (0 to 100 scale), Pigweed, Palmer ([7]; 31 g ai/ha Preemergence) | Corn plant response rating (corn (Zea mays) [13]; [29]) | Plant response rating (0 to 100 scale), Oat, Wild [17, 30] | Ragweed plant response rating ([19]; 125 g ai/ha Postemergence) | Ryegrass, Italian plant response rating ([20]; 125 g ai/ha Postemergence) | Soybean plant response rating (soybean (Glycine max) [21]; 125 g ai/ha Postemergence) | Galium plant response rating [23, 29] | Horseweed plant response rating [24, 29] | Plant response rating (0 to 100 scale), Horseweed [24, 30]
70: Plant response rating (0 to 100 scale), Ragweed ([8]; 31 g ai/ha Preemergence) | Plant response rating (0 to 100 scale), Soybean (soybean (Glycine max) [10]; 31 g ai/ha Preemergence) | Kochia plant response rating (kochia (Bassia scoparia) [16]; [29]) | Soybean plant response rating (soybean (Glycine max) [21]; 31 g ai/ha Postemergence) | Wheat plant response rating ([22]; 125 g ai/ha Postemergence) | Plant response rating, Ducksalad [26]
0: Plant response rating, Barnyardgrass [25] | Plant response rating, Rice (rice (Oryza sativa))
50: Plant response rating (0 to 100 scale), Blackgrass ([1]; 31 g ai/ha Preemergence) | Plant response rating (0 to 100 scale), Corn (corn (Zea mays) [2]; 31 g ai/ha Preemergence) | Foxtail, Giant plant response rating [14, 29] | Goosegrass plant response rating [15, 29] | Oat, Wild plant response rating [17, 29]
10: Plant response rating (0 to 100 scale), Oat, Wild ([6]; 31 g ai/ha Preemergence) | Blackgrass plant response rating [12]
100: Plant response rating (0 to 100 scale), Foxtail, Giant ([3]; 31 g ai/ha Preemergence) | Plant response rating (0 to 100 scale), Foxtail, Giant ([3]; 125 g ai/ha Preemergence) | Plant response rating (0 to 100 scale), Goosegrass ([4]; 31 g ai/ha Preemergence) | Plant response rating (0 to 100 scale), Goosegrass ([4]; 125 g ai/ha Preemergence) | Plant response rating (0 to 100 scale), Kochia (kochia (Bassia scoparia) [5]; 125 g ai/ha Preemergence) | Plant response rating (0 to 100 scale), Pigweed, Palmer ([7]; 125 g ai/ha Preemergence) | Plant response rating (0 to 100 scale), Ryegrass, Italian ([9]; 125 g ai/ha Preemergence) | Plant response rating (0 to 100 scale), Wheat ([11]; 125 g ai/ha Preemergence) | Plant response rating (0 to 100 scale), Corn (corn (Zea mays) [13]; [30]) | Plant response rating (0 to 100 scale), Galium [23, 30]
60: Plant response rating (0 to 100 scale), Wheat ([11]; 31 g ai/ha Preemergence) | Ragweed plant response rating ([19]; 31 g ai/ha Postemergence) | Ryegrass, Italian plant response rating ([20]; 31 g ai/ha Postemergence) | Wheat plant response rating ([22]; 31 g ai/ha Postemergence) | Plant response rating (0 to 100 scale), Blackgrass [28]
90: Plant response rating (0 to 100 scale), Blackgrass ([1]; 125 g ai/ha Preemergence) | Plant response rating (0 to 100 scale), Corn (corn (Zea mays) [2]; 125 g ai/ha Preemergence) | Plant response rating (0 to 100 scale), Kochia (kochia (Bassia scoparia) [5]; 31 g ai/ha Preemergence) | Plant response rating (0 to 100 scale), Oat, Wild ([6]; 125 g ai/ha Preemergence) | Plant response rating (0 to 100 scale), Ragweed ([8]; 125 g ai/ha Preemergence) | Plant response rating (0 to 100 scale), Ryegrass, Italian ([9]; 31 g ai/ha Preemergence) | Plant response rating (0 to 100 scale), Soybean (soybean (Glycine max) [10]; 125 g ai/ha Preemergence) | Plant response rating (0 to 100 scale), Foxtail, Giant [14, 30] | Plant response rating (0 to 100 scale), Goosegrass [15, 30] | Plant response rating (0 to 100 scale), Kochia (kochia (Bassia scoparia) [16]; [30]) | Pigweed, Palmer plant response rating ([18]; 125 g ai/ha Postemergence) | Plant response rating, Sedge, Umbrella [27]
